Source: ChEMBL document CHEMBL1833888, “Fuscoside E: a strong anti-inflammatory diterpene from Caribbean octocoral Eunicea fusca” (2011)
Converted amounts (≈) assume the structure as drawn. The source made the active and inactive calls. No cut-off for these calls is given here.

Tests used:
[1] = test system: Mus musculus; experiment: Antiinflammatory activity in mouse assessed as inhibition of TPA-induced mouse ear edema at 0.5 mg/ear administered relative to untreated control; assay type: functional
[2] = test system: Brucella pseudogrignonensis; experiment: Antibacterial activity against Ochrobactrum pseudogrignonense 21-6 pin by disc-diffusion assay; assay type: functional, organism-based
[3] = test system: Vibrio sp.; experiment: Antibacterial activity against Vibrio sp. 11-6 DEP; assay type: functional
[4] = test system: Bacillus sp.; experiment: Antibacterial activity against Bacillus sp. by disc-diffusion assay; assay type: functional, organism-based

SMILES | inhibition (INH) [1] [%] | Activity [2] | MIC [3] [µg/mL] | Activity [4]
COc1ccc2c(c1)c(CC(=O)O)c(C)n2C(=O)c1ccc(Cl)cc1 [INDOMETHACIN] | 77.3 | – | – | –
C=C1/C=C/[C@@H](C(C)C)CC/C(C)=C/CC1 | 7.1 | Active | 15 (≈ 73.4 µM) | Active
CC(C)C(C)/C=C/[C@@H](C)[C@H]1CC[C@H]2[C@@H]3CC=C4C[C@@H](O)CC[C@]4(C)[C@H]3CC[C@]12C (some centres not stated) | – | Active | – | Active
CC(C)C/C=C/[C@@H](C)[C@H]1CC[C@H]2[C@@H]3CC=C4C[C@@H](O)CC[C@]4(C)[C@H]3CC[C@]12C | – | Active | – | Active
CC(=O)O[C@@H]1[C@H](O[C@H]2CC[C@H](C)[C@@]3(C)C[C@@H](/C(C)=C/CC=C(C)C)CC[C@H]23)OC[C@@H](O)[C@H]1O [FUSCOSIDE E] | 80.5 | Active | – | Active
CC(C)CCC[C@@H](C)[C@H]1CC[C@H]2[C@@H]3CC=C4C[C@@H](O)CC[C@]4(C)[C@H]3CC[C@]12C | – | Active | – | Active
CC(C)C(C)CC[C@@H](C)[C@H]1CC[C@H]2[C@@H]3CC=C4C[C@@H](O)CC[C@]4(C)[C@H]3CC[C@]12C (some centres not stated) | – | Active | – | Active
C/C=C(\CC[C@@H](C)[C@H]1CC[C@H]2[C@@H]3CC=C4C[C@@H](O)CC[C@]4(C)[C@H]3CC[C@]12C)C(C)C | – | Active | – | Active
C=C[C@@]1(C)CC[C@H](/C(C)=C/C=C/C(C)(C)O[C@@H]2OC[C@@H](O)[C@@H](O)[C@@H]2O)C[C@@H]1C(=C)C [FUSCOSIDE B] | 81.5 | – | – | –
C=C[C@@]1(C)CC[C@H](/C(C)=C/C=C/C(C)(C)O)C[C@@H]1C(=C)C [FUSCOL] | 27.3 | – | – | –
C/C=C(/CC[C@@H](C)[C@H]1CC[C@H]2[C@@H]3CC=C4C[C@@H](O)CC[C@]4(C)[C@H]3CC[C@]12C)C(C)C | – | Active | – | Active
